Source: patent US20250163057A1, “DCN-1 MODULATING COMPOUNDS AND METHODS OF USE THEREOF” (Cellarity, Inc., priority 2023, published 2025)
Read-outs that look alike come from different tables or passages of the source.

Legend:
[1] = system: Cullin-3 (CUL3) neddylation; experiment: AlphaLISA assay for Cullin-3 (CUL3) neddylation in TF 1 cells; type: cell-based; conditions: 3 hours treatment
How it was run: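 TF 1 cells in unsupplemented IMDM treated with compound concentrations for 3 h, then lysed. CUL3 neddylation detected by AlphaLISA (biotinylated anti-NEDD8, anti-CUL3 acceptor beads overnight, streptavidin donor beads 1 h); normalized to vehicle (0%) and 1 μM DI-1548 (100%), IC50 from Hill fits.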

[2] = target: T1, DCN1 (DCUND1) protein PONY domain (Homo sapiens (Human), UniProt Q96GG9); experiment: TR-FRET assay, DCN1 binding with FAM-labeled probe
T1 sequence (Q96GG9 60-248): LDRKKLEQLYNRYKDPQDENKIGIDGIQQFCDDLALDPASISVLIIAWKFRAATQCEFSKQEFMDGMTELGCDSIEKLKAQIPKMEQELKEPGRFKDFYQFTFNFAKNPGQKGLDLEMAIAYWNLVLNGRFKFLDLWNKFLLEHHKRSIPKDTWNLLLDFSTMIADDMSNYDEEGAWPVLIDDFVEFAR
How it was run: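 Binding was read as the TR-FRET ratio between a FAM-tagged inhibitor probe and Tb-labeled biotinylated E. coli-expressed DCN1 PONY domain, measured 1, 5 and 24 h after compound addition. The two setups used 5 nM protein/20 nM FAM-probe or 0.31 nM protein/900 nM total probe (100 nM labeled), in TritonX buffer with 200 mM NaCl.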

fetal hemoglobin protein = experiment: HbF HPLC Cell Culture Assay; type: cell-based; conditions: for EC50: 336 h, HbF induction, Day 14 of culture; for Hemoglobin HPLC Ymax obs (%): relative to a control compound
Procedure: A Cell Culture Assay was performed to evaluate the ability of compounds to induce fetal hemoglobin in a cell culture. The amount fetal hemoglobin protein induced was measured by HPLC.
Cell culture began on Day −4 (thaw day). Thaw buffer was prepared by sterile filtering 6 mL of Human Serum Albumin and 144 mL of PBS to make sterile 1% I/PBS. Cells were removed from liquid nitrogen storage and mostly thawed in a 37° C. water bath. Once the ice in the cryovials was melted, cells were transferred quickly into a 50 mL conical tube. Cryovial was rinsed once with thaw buffer and buffer was transferred over to the conical tube as well. Next, doubling volumes of thaw buffer was added to the conical and gently swirled for ˜30 seconds to one minute (for example: 2 mL was added and swirled, then 4 mL, then 8 mL, and so on) until the volume in the conical is 32 mL. Cells and buffer were centrifuged at 300G for 8 minutes, and the supernatant was aspirated. Another 32 mL of thaw buffer was added slowly, swirling the tube. The tube was again centrifuged at 300G for 8 minutes and the supernatant was aspirated. Cells were counted by resuspending in 1 mL of expansion media and counting with AOPI to determine the concentration of cells/mL.
On day 2, Passage & Treatment Day, each cell culture well was counted. Next fresh CD34 Expansion Media was made which contained StemSpan SFEM, CC100 and TPO all from StemCell technologies. Appropriate volume of cells was collected, centrifuged at 300 g and resuspended in fresh media. Cells were plated in treatment format at a density of 200,000 cells/ml, 25,000 cells/well. Finally, they were treated with test compounds as well as positive and negative controls.
On Days 0, 3 & 5 the same process was carried out. First, each cell culture well was counted. Next Phase 1 Erythroid Differentiation Media was freshly made, which contained StemSpan SFEM, 2.5 U/ml EPO, 0.5 mg/ml Holo-TF, 1× Glutamax, 5 μl/ml chemically defined lipid mixture, 10 ng/ml insulin, 50 ng/ml SCF, 10 ng/ml IL-3. Appropriate volume of cells was collected, centrifuged at 300 g and resuspended in fresh media. Cells should now be in fresh wells at a density of 100,000 cells/ml. 60,000 cells, 60,000 cells and 100,000 cells for days 0, 3, 5 respectively. Finally, fresh compound was added to each well at each timepoint (Days 0, 3 & 5).
On Day 7 media and cell culture density changes. Each cell culture well was counted. Next, Phase 2 Erythroid Differentiation Media was freshly made, which contains StemSpan SFEM, 2.5 U/ml EPO, 0.5 mg/ml Holo-TF, 1× Glutamax, 5 μl/ml chemically defined lipid mixture, 10 ng/ml insulin, 50 ng/ml SCF. Appropriate volume of cells was collected, centrifuged at 300 g and resuspended in fresh media. Cells were plated in fresh wells at a density of 500,000 cells/ml, 300,000 cells/well. Finally, fresh compound was added to each well at Day 7 timepoint.
On Day 10 media formulation is once again changed. Each cell culture well was counted. Fresh Phase 3 Erythroid Differentiation Media was made which contains StemSpan SFEM, 2.5 U/ml EPO, 0.5 mg/ml Holo-TF, 1× Glutamax, 5 μl/ml chemically defined lipid mixture, 10 ng/ml insulin. Appropriate volume of cells was collected, centrifuged at 300 g and resuspended in fresh media. Cells were plated in fresh wells at a density of 500,000 cells/ml, 500,000 cells/well. Finally, fresh compound was added to each well at Day 10 timepoint.
On Day 12 the cell density is once again changed. Each cell culture well was counted. Fresh Phase 3 Erythroid Differentiation Media was made. Appropriate volume of cells was collected, centrifuged at 300 g and resuspended in fresh media. Cells were plated in fresh wells at a density of 1,000,000 cells/ml, 1,000,000 cells/well. Finally fresh compound was added to each well.
Day 14 (18th day of experiment) refers to the terminal day of culture. Each cell culture well was counted. Next between 150K and 650K cells were placed in a uniquely labeled 1.5 ml standard tube. […]

DCN1 protein = DCN1 protein (Homo sapiens (Human), UniProt Q96GG9); experiment: Intact Protein MS Analysis with the RapidFire-TOF System (covalent adduct formation); type: binding; conditions: MS Emax; 400 nM DCN1, 3 hours at room temperature
DCN1 protein, sequence (Q96GG9 whole entry): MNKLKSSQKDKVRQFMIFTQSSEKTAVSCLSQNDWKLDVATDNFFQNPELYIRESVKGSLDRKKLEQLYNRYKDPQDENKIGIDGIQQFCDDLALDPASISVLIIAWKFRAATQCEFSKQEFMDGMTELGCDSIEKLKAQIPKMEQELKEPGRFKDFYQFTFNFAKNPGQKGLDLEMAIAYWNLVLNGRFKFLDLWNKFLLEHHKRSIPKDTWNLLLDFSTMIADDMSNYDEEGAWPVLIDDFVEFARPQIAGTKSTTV
How it was run: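 Tag-cleaved human DCN1 (400 nM) expressed in E. coli, in 25 mM Tris-HCl, 200 mM NaCl, 1 mM DTT, was incubated with 11 compound concentrations for 3 h at room temperature and quenched with 0.2% formic acid. Intact-protein Q-TOF MS with deconvolution detected the compound adduct mass.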

[3] = target: T1, DCN1 (DCUND1) protein PONY domain; experiment: Off-rate measurement of reversible covalent molecules (jump dilution TR-FRET with Cy5 probe); type: binding; conditions: for Category: binding mode category from off-rate assay; for residence time: inverse of rate constant K; for residence time / half-life: jump dilution TR-FRET; for koff: jump dilution, Cy5 covalent probe 150 nM, TR-FRET; for half-life: ln(2)/K
From the text: A typical covalent compound is assumed to stay bound to a protein for at least the life of that protein in the cell. In reality, there is a range of how long a covalent compounds remains bound before a reverse reaction takes place. Thus, some covalent bonds can be labeled as reversible as their reverse reaction takes place in a measurable amount of time under physiological conditions. The assay capitalizes on the range of covalent binders by using a high affinity covalent binder as a probe to displace the more reversible binders in an adaptation of the jump dilution method.
In this version of the jump dilution method, the increase in covalent probe binding over time was measured through a TR-FRET reaction between the covalent probe and the biotinylated target protein.
The recombinant form of the DCN1 (DCUND1) protein PONY domain was produced using an E. coli expression system at Viva Biotech (China). The DCN1 protein was biotinylated (EZ sulfo-NHS-LC-biotin; Thermofisher) for labeling with streptavidin terbium (Tb) cryptate in the reaction. This biotinylated protein was used in two forms of the TR-FRET assay as described below.
The off-rate measurement is executed in two steps based on the jump dilution method. […] The greatest dilution allowed within the constraints of the assay was chosen. These factors allow a competitive advantage for the covalent probe to replace the test compound when that compound releases from the target protein. The actual measure is the rate of increased TR-FRET signal as the covalent probe replaces the test compound over time. […] The resulting time dependent curve of the TR-FRET signal is fit to the following equation:
Y=Y0+(Plateau−Y0)*(1−exp(−K*x))
K is the rate constant (1/unit of time). The residence time is defined as the inverse of K, the rate constant. The half-life is calculated as ln(2)/K.

[4] = 24 hr after treatment with compound, read-out: TR FRET IC50 24 hr
[5] = TR FRET IC50 1 hr (nM), 1 hr after treatment with compound
[6] = read-out: TR FRET IC50 1 hr, 1 hr after treatment with compound

Row | SMILES | IC50 ([1]; Homo sapiens, TF-1, 3 h) | IC50 [2, 4] | IC50 [2, 5] | EC50 (fetal hemoglobin protein) | % Adduct Formation (DCN1 protein) | Hemoglobin HPLC Ymax obs (%) (fetal hemoglobin protein) | IC50 [1] | Category [3] | IC50 [2, 6] | residence time [3] | koff [3] | half-life [3]
1 | CCN1C(=O)[C@@H](NC(=O)c2cccc(C(F)(F)F)c2)[C@@H](c2ccc(F)cc2)c2c(C(=O)N3CCC[C@H]3C#N)nn(-c3ccccc3)c21 (racemic) [Compound I-34] | ≤ 0.1 µM | ≤ 200 nM | ≤ 200 nM | > 0.2 µM |  |  |  |  |  |  |  | 
2 | CCN1C(=O)[C@@H](NC(=O)c2cccc(C(F)(F)F)c2)[C@@H](c2ccc(F)cc2)c2c(C(=O)N(C)[C@@H](C#N)CCN(C)C)nn(-c3ccccc3)c21 (relative stereo) [Compound I-304, (4S,5S)—N-[(1R*)-1-cyano-3-(dimethylamino)propyl]-7-ethyl-4-(4-fluorophenyl)-N-methyl-6-oxo-1-phenyl-5-[3-(trifluoromethyl)benzamido]-4H,5H-pyrazolo[3,4-b]pyridine-3-carboxamide] |  |  |  |  | +++ (MS Emax % adduct formation greater than 80.0 and less than or equal to 100.0) | ++ (Hemoglobin HPLC Ymax greater than 65.0 and less than or equal to 100.0) |  |  |  |  |  | 
3 | CCN1C(=O)[C@@H](NC(=O)c2cccc(C(F)(F)F)c2)[C@@H](c2ccc(F)cc2)c2c(C(=O)N(C)[C@@H](C#N)C3COC3)nn(-c3ccccc3)c21 (single isomer, unassigned) [Compound I-294] |  |  |  | 0.05 to 0.2 µM | +++ (MS Emax % adduct formation greater than 80.0 and less than or equal to 100.0) | ++ (Hemoglobin HPLC Ymax greater than 65.0 and less than or equal to 100.0) | ≤ 0.1 µM |  |  |  |  | 
4 | CCN1C(=O)[C@@H](NC(=O)c2cccc(C(F)(F)F)c2)[C@@H](c2ccc(F)cc2)c2c(C(=O)N(C)[C@@H](C#N)CCN(C)C)nn(-c3ccccc3)c21 (single isomer, unassigned) [Compound I-304, (4S,5S)—N-[(1R*)-1-cyano-3-(dimethylamino)propyl]-7-ethyl-4-(4-fluorophenyl)-N-methyl-6-oxo-1-phenyl-5-[3-(trifluoromethyl)benzamido]-4H,5H-pyrazolo[3,4-b]pyridine-3-carboxamide] | ≤ 0.1 µM |  |  | ≤ 0.05 µM |  |  |  |  |  |  |  | 
5 | CCN1C(=O)[C@@H](NC(=O)c2cccc(C(F)(F)F)c2)[C@@H](C2CC2)c2c(C(=O)N3CCN(C)C[C@H]3C#N)nn(C3CCOCC3)c21 (single isomer, unassigned) [Compound I-430] | ≤ 0.1 µM | ≤ 200 nM | 200 to 1000 nM |  |  |  |  | slow reversible |  |  |  | 
6 | CCN1C(=O)[C@@H](NC(=O)c2cccc(C(F)(F)F)c2)[C@@H](c2ccc(F)cc2)c2c(C(=O)N3CCNC[C@@H]3C#N)nn(-c3ccccc3)c21 [Compound I-281] |  |  |  | ≤ 0.05 µM |  | ++ (Hemoglobin HPLC Ymax greater than 65.0 and less than or equal to 100.0) |  |  |  |  |  | 
7 | CCN1C(=O)[C@@H](NC(=O)c2cccc(C(F)(F)F)c2)[C@@H](C2CC2)c2c(C(=O)N3CCC[C@H]3C#N)nn(C3CCOCC3)c21 [Compound I-348] | ≤ 0.1 µM | ≤ 200 nM | 200 to 1000 nM |  | ++ (MS Emax % adduct formation greater than 30.0 and less than or equal to 80.0) |  |  | slow reversible |  |  |  | 
8 | CCN1C(=O)[C@@H](NC(=O)c2cccc(C(F)(F)F)c2)[C@@H](C2CC2)c2c(C(=O)N3CCOC[C@H]3C#N)nn(C3CCOCC3)c21 [Compound I-381] |  | ≤ 200 nM |  |  | +++ (MS Emax % adduct formation greater than 80.0 and less than or equal to 100.0) |  |  | reversible covalent | ≤ 200 nM | 297 min | 5.62e-05 s⁻¹ | 3.427 h
9 | CCN1C(=O)[C@@H](NC(=O)c2cccc(C(F)(F)F)c2)[C@@H](c2ccc(F)cc2)c2c(C(=O)N3CC[C@H]3C#N)nn(C3CCOCC3)c21 [Compound I-384] | ≤ 0.1 µM | ≤ 200 nM |  |  | + (MS Emax % adduct formation greater than or equal to 0.0 and less than or equal to 30.0) |  |  | reversible covalent | ≤ 200 nM | 184 min | 9.21e-05 s⁻¹ | 2.122 h
10 | CCN1C(=O)[C@@H](NC(=O)c2cccc(C(F)(F)F)c2)[C@@H](C2CC2)c2c(C(=O)N3CS(=O)(=O)C[C@@H]3C#N)nn(C3CCOCC3)c21 [Compound I-560] | ≤ 0.1 µM | ≤ 200 nM |  |  |  |  |  | fast reversible | ≤ 200 nM | 44.1 min | 0.000378 s⁻¹ | 0.509 h
11 | CCN1C(=O)[C@@H](NC(=O)c2cccc(C(F)(F)F)c2)[C@@H](C2CC2)c2c(C(=O)N3CC[C@H]3C#N)nn(C3CCOCC3)c21 [Compound I-660] | ≤ 0.1 µM | ≤ 200 nM |  |  |  |  |  | reversible covalent | ≤ 200 nM | 266 min | 6.28e-05 s⁻¹ | 3.07 h
